Data as given in article PMC7409197, “Adenosine Receptors as Neuroinflammation Modulators: Role of A1 Agonists and A2A Antagonists” (Cells, 2020).

Key:
Assay type in all cases: cell-based, rat
mixed glial cells [1] = assay: MTS cell viability in cytokine cocktail (CK) inflammatory model, mixed glial cells
Method: (§1) Newborn male Wistar rats were sacrificed and mixed glial cell cultures were obtained from the cerebral cortices. Cerebral cortices were dissected, and meninges were cleared away. Tissues were treated with trypsin solution (trypsin 0.05% (w/v) trypsin-EDTA 5 mM) for 25 min at 37 °C. The tissue was fully disaggregated by pipetting and the dissociated cells were seeded in a 6-well plate with Dulbecco’s modified Eagle’s/High glucose medium enriched with 100 U/mL penicillin, 100 µg/mL streptomycin and 10% FBS. Fresh medium was changed the next day and then every 3 days decreasing the quantity of FBS. All experiments were carried out after 7–9 days of plating.
(§2) Mixed glial cell cultures were divided into 2 groups, one to study A1AR partial agonists and another for A2AAR antagonists. Cells from the first group were pre-treated with 2 µL at three different concentrations of C1 for 15, 30 or 60 min and then with further addition of a pro-inflammatory cocktail of cytokines (TNF-α, 20 ng/mL; IL-1β, 20 ng/mL; IFN-γ 20 ng/mL) for 48 h. […] To study C2 cells were pre-treated with the same CK cocktail for 48 h and then with 2 µL of C2 at three different concentrations for 15, 30, or 60 min (Scheme 1). ZM241385, a well known A2AAR antagonist, was used as reference compound. Furthermore, ligands and CK were tested alone for 15, 30 or 60 min and 48 h respectively.
(§3) 1.7 × 10^4 mixed glial cells were cultured in 98 μL of the specific medium in a 96 well plate overnight. The next day 2 μL of ligand or CK cocktail were added to the well. After all treatments, 20 µL of CellTiter 96® AQueous One Solution Reagent was added in a final volume of 100 µL. Absorbance was read at 490 nm using the plate reader GENiosPro. Cell viability was calculated as percentage using the following formula: Cell viability =OD mean of treated cells/OD mean of control cells × 100

mixed glial cells [2] = assay: CellTiter 96 AQueous One (MTS) cell viability, ligands alone, mixed glial cells
Method: as §1, §2, §3

mixed glial cells [3] = assay: Griess assay (nitrite production) in mixed glial cells; details: 10 nM, 30 min, after CK cocktail
Method: To test the antioxidant capacity of these new molecules Griess assay was performed. The Griess Reagent System is based in the conversion of sulphanilamide into an azo-compound with the presence of N-1-napthylenediamide dihydrochloride (NED) under acidic condition. 1.7 × 10^4 mixed glial cells were cultured in 98 μL of the specific medium in a 96 well plate overnight. After 24 h the media from each well of the cell culture was transferred into a 96 well plate and then 50 µL of the sulphanilamide solution was added to each well. After 5–10 min of incubation at room temperature (rt), 50 µL of the NED Solution were dispensed to all wells and they were incubated at rt for other 5–10 min. Absorbance was measured within 30 min in the plate reader GENiosPro with a filter between 520 nm and 550 nm. This experiment was performed 3–5 replicates. Concentration of NO¬¬¬¬2¯ in each sample was determined by comparison to a Nitrite standard reference curve.

## OC[C@H]1O[C@@H](n2cnc3c(NC4CCCC4)nc(Cl)nc32)[C@H](O)[C@@H]1O [CCPA, 2-chloro-N^6-cyclopentyladenosine, reference compound]
Mixed glial cells [1]; pre-treatment before CK cocktail 48 h, C1 2-30 µM, CCPA 10 nM 30 min
  prevention of CK aggression (cell viability, words): prevent the CK aggression
Mixed glial cells [2]; ligand alone, 5, 10, 60 nM, 15, 30, 60 min
  cell viability vs. control: did not change cell viability significantly

## Nc1nc(NCCc2ccc(O)cc2)nc2nc(-c3ccco3)nn12 [ZM241385, reference compound]
Mixed glial cells [1]; CK cocktail 20 ng/mL 48 h, then ligand 10 nM for 30 min
  cell viability vs. control: 136 ± 1.7%
Mixed glial cells [3]
  nitrite levels in presence of CK cocktail: able to decrease NO¬¬¬¬2¯ levels induced by CK more than the well know ZM241385
Mixed glial cells [2]; ligand alone, 10 nM, time not stated at the place (highest effect at 30 min)
  cell viability vs. control: 135 ± 3.5%
